Columns and labels:
[1] = Photophysical properties of the metallacrowns in solid state and in aqueous solutions; format: physicochemical; settings: room temperature, excitation at 370 nm
Protocol: FIG. 4. illustrates the normalized excitation (λem(Nd^3+)=1070 nm, λem(Yb^3+)=980 nm) and emission (λex=370 nm) spectra of Yb^3+[Zn(II)MCpyzHA], at the top, and Nd^3+[Zn(II)MCpyzHA] MCs, at the bottom, (solid or 200 μM solutions, room temperature).

[2] = Photostability stress tests; format: physicochemical
Protocol: Photostability stress tests of Yb^3+[Zn(II)MCpyzHA] (Yb λem=980 nm) and Nd^3+[Zn(II)MCpyzHA] (Nd λem=1064 nm) and the commercially available dye for necrotic cells (Propidium Iodide) were performed. The complexes (150 μM) or dye (50 μM) were dissolved in water and the complexes were also dissolved in OPTI-MEM® media. The MC solutions were exposed to 5 hours of UV radiation (377 nm). The propidium iodide solution was exposed to 5 hours of UV radiation (530 nm).

[3] = Photophysical parameters in OPTI-MEM media, cell supernatant and HeLa cells; format: physicochemical
Protocol: The Yb^3+[Zn(II)MCpyzHA] complexes were dissolved in OPTI-MEM® medium with 2% SVF (without cells) and were incorporated in HeLa cells, both with and without exposure to UV light. The results in are shown in FIG. 20, (A) (corrected and normalized excitation) and FIG. 20, (B) (corrected and normalized emission). […] The present inventors developed instrumentation in order to collect photophysical properties of MCs inside of cancer cells. They measured quantitative photophysical parameters (quantum yields and life times) inside of the cells with equipment which is usually adapted for measuring of (quantum yields and life times) in solids or in concentrated solutions.
The Yb^3+[Zn(II)MCpyzHA] complexes were collected together with cell supernatant (SN) and with HeLa cells treated with N-acetyl cysteine, both with and without exposure to UV light. For SN1 and cells1, incubation with NAC took place for 30 minutes, then the cells were washed, and incubation with Yb^3+[Zn(II)MCpyzHA] took place for 15 minutes. For SN2 and cells2, incubation with Yb^3+[Zn(II)MCpyzHA] took place for 15 minutes, and then NAC was added and incubation with NAC took place for 30 minutes. The results in are shown in FIGS. 20C (corrected and normalized excitation) and 20D (corrected and normalized emission). […]

[4] = Photophysical properties of the metallacrowns in solid state and in aqueous solutions; format: physicochemical
HeLa cells [5] = assay: NIR epifluorescence microscopy of HeLa cells (necrotic cell labelling, simultaneous staining and fixing); format: cell-based, Human
HeLa cells [6] = assay: as above; format: cell-based, Human; settings: 150 μM complex and 3 μM propidium iodide together, UV light (377 nm) 5 minutes
Protocol: Cells were seeded in a 8-well Lab Tek Chamber coverglass (Nunc, Dutsher S.A., Brumath, France) at a density of 6×10^4 cells/well and cultured at 37° C. in 5% humidified CO2 atmosphere.
The continued incubation enabled the internalization of the complexes.
All of the previously mentioned incubated HeLa cells were then washed with fresh OPTI-MEM® media and were incubated with 3 μM propidium iodide for 5 minutes. Propidium iodide is a commercially available stain (emitting in the visible range) for necrotic cells, and was used to confirm cell necrosis.
i. 377 nm with 50 nm band-pass filter with 50 nm bandwidth for the excitation and 805 nm long-pass filter 805 nm or 996 nm band-pass filter with 70 nm bandwidth for YbIII emission in the NIR range.
ii. […] for the excitation and 805 nm long-pass filter 805 nm or 996 nm band-pass filter with 70 nm bandwidth for YbIII emission in the NIR range. […]

[7] = Table 3, No UV: After 5 h incubation with HeLa cells without illumination
[8] = Table 3, UV: After 5 h incubation with HeLa cells with UV illumination (during 8 min)

O=C([N-][O-])c1cnccn1.O=C([N-][O-])c1cnccn1.O=C([N-][O-])c1cnccn1.O=C([N-][O-])c1cnccn1.O=C([N-][O-])c1cnccn1.O=C([N-][O-])c1cnccn1.O=C([N-][O-])c1cnccn1.O=C([N-][O-])c1cnccn1.O=C([N-][O-])c1cnccn1.O=C([N-][O-])c1cnccn1.O=C([N-][O-])c1cnccn1.O=C([N-][O-])c1cnccn1.O=C([N-][O-])c1cnccn1.O=C([N-][O-])c1cnccn1.O=C([N-][O-])c1cnccn1.O=C([N-][O-])c1cnccn1.O=S(=O)([O-])C(F)(F)F.O=S(=O)([O-])C(F)(F)F.O=S(=O)([O-])C(F)(F)F.[Nd+3].[Zn+2].[Zn+2].[Zn+2].[Zn+2].[Zn+2].[Zn+2].[Zn+2].[Zn+2].[Zn+2].[Zn+2].[Zn+2].[Zn+2].[Zn+2].[Zn+2].[Zn+2].[Zn+2].c1ccncc1.c1ccncc1.c1ccncc1.c1ccncc1.c1ccncc1.c1ccncc1.c1ccncc1.c1ccncc1 [Nd^3+[Zn(II)MCpyzHA]]
Q (quantum yield), D2O ([1]; 200 μM in D2O): 6.17(9) · 10^−2% | Q (quantum yield), H2O ([1]; 200 μM in H2O): 7.7(1) · 10^−3% | Q (quantum yield), Solid ([1]; solid state): 0.444(9) % | Photostability ([2]; 150 μM in water and OPTI-MEM media, 5 hours of irradiation with 377 nm light): fully photostable | τ2 ([3]; Table 3, In HeLa cells): 0.808(8) μs | τ2 contribution (longer component) ([3]; Table 3, In HeLa cells): 100% | Quantum yield [3, 7]: 7.50(5) · 10^−3% | τ1 [3, 7]: 0.261(1) μs | τ1 contribution [3, 7]: 85% | τ2 [3, 7]: 0.98(1) μs | τ2 contribution [3, 7]: 15% | Quantum yield ([3]; Table 3, OptiMEM): 7.33(1) · 10^−3% | τ1 ([3]; Table 3, OptiMEM): 0.256(6) μs | τ1 contribution ([3]; Table 3, OptiMEM): 90% | τ2 ([3]; Table 3, OptiMEM): 1.1(1) μs | τ2 contribution ([3]; Table 3, OptiMEM): 10% | Quantum yield ([3]; Table 3, OptiMEM-UV 1 h 30 min): 7.7(1) · 10^−3% | τ1 ([3]; Table 3, OptiMEM-UV 1 h 30 min): 0.352(2) μs | τ1 contribution ([3]; Table 3, OptiMEM-UV 1 h 30 min): 67% | τ2 ([3]; Table 3, OptiMEM-UV 1 h 30 min): 0.874(7) μs | τ2 contribution ([3]; Table 3, OptiMEM-UV 1 h 30 min): 33% | Quantum yield [3, 8]: 6.2(1) · 10^−3% | τ1 [3, 8]: 0.376(3) μs | τ1 contribution [3, 8]: 60% | τ2 [3, 8]: 0.83(2) μs | τ2 contribution [3, 8]: 40% | Change of luminescent properties in media, cell supernatant or HeLa cells ([3]; with/without exposure to UV light): did not change in OPTI-MEM® media or inside of the HeLa cells | τ (luminescence lifetime), D2O ([4]; 200 μM in D2O, room temperature, excitation at 355 nm): 1.29(1) μs | τ (luminescence lifetime), H2O ([4]; 200 μM in H2O, room temperature, excitation at 355 nm): 0.214(4) μs | q (number of coordinated water molecules) ([4]; calculated from lifetimes, estimated error ±0.2): 0.1 | τ (luminescence lifetime), Solid ([4]; solid state, room temperature, excitation at 355 nm): 1.71(1) μs | Fixing and staining of HeLa cells (HeLa cells [5]; 150 μM, 15 minutes, UV light (377 nm) 8 minutes, further 1 hour): fixed and stained

CC[N+](C)(CC)CCC[n+]1c(-c2ccccc2)c2cc(N)ccc2c2ccc(N)cc21.[I-].[I-] [propidium iodide, reference compound]
Incubation time after which emission was observed in cells after UV illumination (HeLa cells [6]): 15 min | Photostability (fluorescence intensity) ([2]; 50 μM in water, 5 hours of irradiation at 530 nm): dropped half of its initial intensity | Specificity of the dye for cell state (HeLa cells [5]; 150 μM complex and 3 μM propidium iodide together, UV light (377 nm) 5 minutes): specific for dead and apoptotic cells
